Laboratory results published in patent US7999107B2, “Substituted pyrano[2,3-B]pyridine derivatives as cannabinoid-1 receptor modulators” (Merck Sharp & Dohme Corp., priority 2007, dated 2011).
Read-outs that look alike come from different tables or passages of the source.

What was measured:
[1] = molecular target: T1, recombinant human CB1 receptor expressed in CHO cells (Homo sapiens, UniProt P21554); test: Cannabinoid Receptor-1 (CB1) Functional Antagonist Assay; format: cell-based; details: cAMP
Experimental: To determine the antagonist activity of test compound, the reaction mixture also contains 0.5 nM of the agonist CP55940 (or 50 nM of methanandamide), and the reversal of the CP55940 (or methanandamide) effect is quantitated with increasing concentration of the test compound. Intracellular cAMP is determined as described above. An IC50 value for the test compound is calculated from the titration curve.
Alternatively, a series of dose response curves for the agonist CP55940 (or methanandamide) is performed with increasing concentration of the test compound in each of the dose response curves, and a Schild analysis is carried to calculate the Kb value which is an estimation of test compound binding affinity.

[2] = molecular target: T2, recombinant human CB1 receptor (Homo sapiens, UniProt P21554); test: Cannabinoid Receptor-1 (CB1) Binding Assay
T2 construct: expressed in transfected cells; host or cells: CHO cells (membranes)
Experimental: Binding affinity determination is based on recombinant human CB1 receptor expressed in Chinese Hamster Ovary (CHO) cells (Felder et al, Mol. Pharmacol. 48: 443-450, 1995). Total assay volume is 250 μl (240 μl CB1 receptor membrane solution plus 5 μl test compound solution plus 5 μl [3H]CP-55940 solution). Final concentration of [3H]CP-55940 is 0.6 nM. Binding buffer contains 50 mM Tris-HCl, pH7.4, 2.5 mM EDTA, 5 mM MgCl2, 0.5 mg/mL fatty acid free bovine serum albumin and protease inhibitors (Cat#P8340, from Sigma). To initiate the binding reaction, 5 μl of radioligand solution is added, the mixture is incubated with gentle shaking on a shaker for 1.5 h at 30° C. The binding is terminated by using 96-well harvester and filtering through GF/C filter presoaked in 0.05% polyethylenimine. The bound radiolabel is quantitated using scintillation counter. Apparent binding affinities for various compounds are calculated from IC50 values (DeBlasi et al., Trends Pharmacol Sci 10: 227-229, 1989).

[3] = molecular target: T1, recombinant human CB1 receptor expressed in CHO cells; test: Cannabinoid Receptor-1 (CB1) Functional Activity Assay (cAMP); format: cell-based; details: forskolin-stimulated cAMP
Experimental: The functional activation of CB1 receptor is based on recombinant human CB1 receptor expressed in CHO cells (Felder et al, Mol. Pharmacol. 48: 443-450, 1995). To determine the agonist activity or inverse agonist activity of any test compound, 50 ul of CB1-CHO cell suspension are mixed with test compound and 70 ul assay buffer containing 0.34 mM 3-isobutyl-1-methylxanthine and 5.1 uM of forskolin in 96-well plates. The assay buffer is comprised of Earle's Balanced Salt Solution supplemented with 5 mM MgCl2, 1 mM glutamine, 10 mM HEPES, and 1 mg/mL bovine serum albumin. The mixture is incubated at room temperature for 30 minutes, and terminated by adding 30 ul/well of 0.5M HCl. The total intracellular cAMP level is quantitated using the New England Nuclear Flashplate and cAMP radioimmunoassay kit.

[4] = [3H]CP-55940 0.6 nM, CHO cell membranes, read-out: CB1 binding IC50

T1 sequence (P21554 whole entry): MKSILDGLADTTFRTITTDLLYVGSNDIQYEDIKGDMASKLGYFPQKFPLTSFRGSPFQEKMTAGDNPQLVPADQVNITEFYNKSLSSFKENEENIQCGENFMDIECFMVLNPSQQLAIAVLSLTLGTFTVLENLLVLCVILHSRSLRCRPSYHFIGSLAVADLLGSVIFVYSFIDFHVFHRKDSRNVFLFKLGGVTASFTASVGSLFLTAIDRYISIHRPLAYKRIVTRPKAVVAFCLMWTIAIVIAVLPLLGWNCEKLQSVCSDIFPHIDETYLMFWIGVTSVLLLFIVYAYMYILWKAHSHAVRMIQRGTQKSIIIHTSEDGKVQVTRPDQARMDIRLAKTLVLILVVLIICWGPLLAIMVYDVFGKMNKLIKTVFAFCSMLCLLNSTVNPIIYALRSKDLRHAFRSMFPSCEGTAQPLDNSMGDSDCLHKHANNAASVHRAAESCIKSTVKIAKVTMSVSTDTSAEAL
T2 sequence (P21554 whole entry): as above

Structure (SMILES): O=C1CC2(CCCCC2)Oc2nc(-c3ccccc3Cl)c(-c3ccc(Cl)cc3)cc21 [Example 4, 7′-(2-Chlorophenyl)-6′-(4-chlorophenyl)spiro[cyclohexane-1,2′-pyrano[2,3-b]pyridin]-4′(3′H)-one]
- functional character at CB1 [1]: functional inverse agonists
- IC50 [2]: 8 nM
- EC50 [3]: < 20 nM

Structure (SMILES): CC(C)(C)C1CC(=O)c2cc(-c3ccc(Cl)cc3)c(-c3ccccc3Cl)nc2O1 (centres unmarked) [Example 12, 2-tert-Butyl-7-(2-chlorophenyl)-6-(4-chlorophenyl)-2,3-dihydro-4H-pyrano[2,3-b]pyridin-4-one]
- functional character at CB1 [1]: functional inverse agonists
- IC50 [2, 4]: 2 nM
- EC50 [3]: < 20 nM

Structure (SMILES): CNC(=O)C(=O)NC1CC(C)(C)Oc2nc(-c3ccc(Cl)cc3Cl)c(-c3ccc(Cl)cc3)cc21 (centres unmarked) [Example 66, N-[6-(4-Chlorophenyl)-7-(2,4-dichlorophenyl)-2,2-dimethyl-3,4-dihydro-2H-pyrano[2,3-b]pyridin-4-yl]-N′-methylethanediamide]
- functional character at CB1 [1]: functional inverse agonists
- IC50 [2, 4]: 2 nM
- EC50 [3]: < 20 nM

Structure (SMILES): C[C@@H](O)C(=O)NC1CC(C)(C)Oc2nc(-c3ccc(Cl)cc3Cl)c(-c3ccc(Cl)cc3)cc21 (stereo partly drawn) [Example 96, (2R)-N-[6-(4-chlorophenyl)-7-(2,4-dichlorophenyl)-2,2-dimethyl-3,4-dihydro-2H-pyrano[2,3-b]pyridin-4-yl]-2-hydroxypropanamide]
- functional character at CB1 [1]: functional inverse agonists

Structure (SMILES): CN(C)C(=O)NC1CC(C)(C)Oc2nc(-c3ccc(Cl)cc3Cl)c(-c3ccc(Cl)cc3)cc21 (centres unmarked) [Example 111, N′-[6-(4-chlorophenyl)-7-(2,4-dichlorophenyl)-2,2-dimethyl-3,4-dihydro-2H-pyrano[2,3-b]pyridin-4-yl]-N,N-dimethylurea]
- functional character at CB1 [1]: functional inverse agonists
- IC50 [2, 4]: 2 nM
- EC50 [3]: < 20 nM

Structure (SMILES): CC1(C)CC(Nc2ccccn2)c2cc(-c3ccc(Cl)cc3)c(-c3ccc(Cl)cc3Cl)nc2O1 (centres unmarked) [Example 245, 6-(4-Chlorophenyl)-7-(2,4-dichlorophenyl)-2,2-dimethyl-N-(pyridine-2-yl)-3,4-dihydro-2H-pyrano[2,3-b]pyridin-4-amine]
- functional character at CB1 [1]: functional inverse agonists
- IC50 [2, 4]: 2 nM
- EC50 [3]: < 20 nM

Structure (SMILES): Cc1cc(NC2CC(C)(C)Oc3nc(-c4ccc(Cl)cc4Cl)c(-c4ccc(Cl)cc4)cc32)n[nH]1 (centres unmarked) [Example 246, 6-(4-Chlorophenyl)-7-(2,4-dichlorophenyl)-2,2-dimethyl-N-(5-methyl-1H-pyrazol-3-yl)-3,4-dihydro-2H-pyrano[2,3-b]pyridin-4-amine]
- functional character at CB1 [1]: functional inverse agonists
- IC50 [2, 4]: 10 nM
- EC50 [3]: < 20 nM

Structure (SMILES): Cc1cc(C(=O)N[C@@H]2CC(C)(C)Oc3nc(-c4ccc(Cl)cc4Cl)c(-c4ccc(Cl)cc4)cc32)n[nH]1 [Example 327, N-[(4R)-6-(4-Chlorophenyl)-7-(2,4-dichlorophenyl)-2,2-dimethyl-3,4-dihydro-2H-pyrano[2,3-b]pyridin-4-yl]-5-methyl-1H-pyrazole-3-carboxamide]
- functional character at CB1 [1]: functional inverse agonists
